Experimental data taken from patent US20220289732A1, “HETEROCYCLIC WDR5 INHIBITORS AS ANTI-CANCER COMPOUNDS” (NOVARTIS AG, priority 2019, published 2022).

Assays:
[1] = target: WDR5 (Homo sapiens, UniProt P61964); assay: WDR5 HTRF binding assay; conditions: read-out: (a) WDR5 HTRF Pep Val v.1[Inhibitor/IC50]Qualified AC50
Outline: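 In this HTRF displacement format, biotinylated MLL1 WIN peptide (3762-3773, 20 nM) binds WDR5 (6 nM) in 25 mM Hepes pH 7.5 with 100 mM NaCl, 2 mM DTT and 0.1% BSA for 20 min at rt. Detection used streptavidin-APC/anti-His-Eu for 1 hr. IC50 came from dose-response fits of normalized signal; 15 nM biotin-PEG-His peptide served as counter assay.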

[2] = target: wild type MLL1 four-member complex (MLL1-4C) (Homo sapiens, UniProt P61964); assay: MLL1 LC-MS assay (SAH production); type: biochemical; conditions: read-out: (b) MLL LCMS Peptide Val.v.1 Qualified AC50
Outline: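 SAH formation, measured by LC-MS/MS after a TFA quench containing d4-SAH, was normalised to no-compound and no-enzyme controls and fitted to a dose-response curve for IC50. Reactions ran 120 min at rt (pH 8.0 Tris buffer) with final 30 nM MLL1 four-member complex, 2.5 μM SAM and 10 μM biotinylated H3[1-21] peptide, after a 20-min enzyme/SAM-compound preincubation.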

[3] = system: MV4-11 cells; assay: MV4-11 6-day cell growth CTG (CellTiter-Glo) assay; type: cell-based; conditions: Homo sapiens, MV4-11, 144 h, 6 days, read-out: (c) MLL/WDR5 cell proliferation assay//MLL/WDR5 proliferation MV4:11 Qualified AC50
Outline: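 IC50 comes from a dose-response fit of % inhibition relative to DMSO controls, with viable cells measured by CellTiter-Glo luminescence. Compounds were tested over 12 points (1:3, starting at 50 μM final) on MV4-11 cells plated at 300/well and grown 6 days.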

Structure (SMILES)	IC50 [1]	AC50 [2]	AC50 [3]
CCOc1cc(C(C)N2CCc3c(cc(CCN(C)CC)cc3-c3cc(OC)ncc3Cl)C2=O)ncc1C#N (stereo not drawn) [Example 136, 6-(1-(5-(5-chloro-2-methoxypyridin-4-yl)-7-(2-(ethyl(methyl)amino)ethyl)-1-oxo-3,4-dihydroisoquinolin-2(1H)-yl)ethyl)-4-ethoxynicotinonitrile]	< 10 nM	10 to 1000 nM	10 to 1000 nM
CCN(C)CCc1cc2c(c(-c3ccc(F)nc3C)c1)CCN(Cc1cnc(F)c(OC)c1)C2=O [Example 137, 7-(2-(ethyl(methyl)amino)ethyl)-5-(6-fluoro-2-methylpyridin-3-yl)-2-((6-fluoro-5-methoxypyridin-3-yl)methyl)-3,4-dihydroisoquinolin-1(2H)-one]	< 10 nM	10 to 1000 nM	10 to 1000 nM
CCOc1cc(CN2CCc3c(cc(CCN(C)CC)cc3-c3cc(C)cnc3C)C2=O)ncc1C#N [Example 140, 6-((5-(2,5-dimethylpyridin-3-yl)-7-(2-(ethyl(methyl)amino)ethyl)-1-oxo-3,4-dihydroisoquinolin-2(1H)-yl)methyl)-4-ethoxynicotinonitrile]	< 10 nM	10 to 1000 nM	10 to 1000 nM
CCOc1cc(C(C)N2CCc3c(cc(CCN(C)CC)cc3-c3ccnc(F)c3C)C2=O)ncc1C#N (stereo not drawn) [Example 141, 4-ethoxy-6-(1-(7-(2-(ethyl(methyl)amino)ethyl)-5-(2-fluoro-3-methylpyridin-4-yl)-1-oxo-3,4-dihydroisoquinolin-2(1H)-yl)ethyl)nicotinonitrile]	10 to 1000 nM	10 to 1000 nM	10 to 1000 nM
CCOc1cc(C(C)N2CCc3c(cc(CCN(C)CC)cc3-c3cc(F)ncc3C)C2=O)ncc1C#N (stereo not drawn) [Example 143, 4-ethoxy-6-(1-(7-(2-(ethyl(methyl)amino)ethyl)-5-(2-fluoro-5-methylpyridin-4-yl)-1-oxo-3,4-dihydroisoquinolin-2(1H)-yl)ethyl)nicotinonitrile]	10 to 1000 nM	10 to 1000 nM	10 to 1000 nM
CCN(C)CCc1cc2c(c(-c3cn(C)nc3C(F)F)c1)CCN(C(C)c1cnc(F)c(OC)c1)C2=O (stereo not drawn) [Example 146, 5-(3-(difluoromethyl)-1-methyl-1H-pyrazol-4-yl)-7-(2-(ethyl(methyl)amino)ethyl)-2-(1-(6-fluoro-5-methoxypyridin-3-yl)ethyl)-3,4-dihydroisoquinolin-1(2H)-one]	10 to 1000 nM	10 to 1000 nM	10 to 1000 nM
CCOc1cc(C(C)N2CCc3c(cc(CCN(C)CC)cc3-c3cn(C)nc3C(F)(F)F)C2=O)ncc1C#N (stereo not drawn) [Example 148, 4-ethoxy-6-(1-(7-(2-(ethyl(methyl)amino)ethyl)-5-(1-methyl-3-(trifluoromethyl)-1H-pyrazol-4-yl)-1-oxo-3,4-dihydroisoquinolin-2(1H)-yl)ethyl)nicotinonitrile]	10 to 1000 nM	10 to 1000 nM	10 to 1000 nM
CCOc1cc([C@H](C)N2CCc3c(cc(CCN(C)CC)cc3-c3cn(C)c(=O)cc3C(F)F)C2=O)ncc1C#N [Example 149, (S)-6-(1-(5-(4-(difluoromethyl)-1-methyl-6-oxo-1,6-dihydropyridin-3-yl)-7-(2-(ethyl(methyl)amino)ethyl)-1-oxo-3,4-dihydroisoquinolin-2(1H)-yl)ethyl)-4-ethoxynicotinonitrile]	10 to 1000 nM	10 to 1000 nM	10 to 1000 nM
CCOc1cc(C(C)N2CCc3c(cc(CCN(C)CC)cc3-c3cccnc3CC)C2=O)ncc1C#N (stereo not drawn) [Example 151, 4-ethoxy-6-(1-(7-(2-(ethyl(methyl)amino)ethyl)-5-(2-ethylpyridin-3-yl)-1-oxo-3,4-dihydroisoquinolin-2(1H)-yl)ethyl)nicotinonitrile]	10 to 1000 nM	10 to 1000 nM	10 to 1000 nM
CCOc1cc([C@H](C)N2CCc3c(cc(CCN(C)CC)cc3-c3ccncc3Cl)C2=O)ncc1C#N [Example 152, (S)-6-(1-(5-(3-chloropyridin-4-yl)-7-(2-(ethyl(methyl)amino)ethyl)-1-oxo-3,4-dihydroisoquinolin-2(1H)-yl)ethyl)-4-ethoxynicotinonitrile]	10 to 1000 nM	10 to 1000 nM	10 to 1000 nM

The next lines start with results.

IC50 [1]	AC50 [2]	Structure (SMILES)	AC50 [3]
< 10 nM	10 to 1000 nM	CCOc1cc(CN2CCc3c(cc(CCN(C)CC)cc3-c3cn(C)c(=O)cc3C)C2=O)ncc1C#N [Example 135, 6-((5-(1,4-dimethyl-6-oxo-1,6-dihydropyridin-3-yl)-7-(2-(ethyl(methyl)amino)ethyl)-1-oxo-3,4-dihydroisoquinolin-2(1H)-yl)methyl)-4-ethoxynicotinonitrile]	10 to 1000 nM
< 10 nM	10 to 1000 nM	CCOc1cc([C@H](C)N2CCc3c(cc(CCN(C)CC)cc3-c3cc(N)cnc3C(F)(F)F)C2=O)ncc1C#N [Example 138, (S)-6-(1-(5-(5-amino-2-(trifluoromethyl)pyridin-3-yl)-7-(2-(ethyl(methyl)amino)ethyl)-1-oxo-3,4-dihydroisoquinolin-2(1H)-yl)ethyl)-4-ethoxynicotinonitrile]	10 to 1000 nM
< 10 nM	10 to 1000 nM	CCOc1cc([C@H](C)N2CCc3c(cc(CCN(C)CC)cc3-c3cccnc3C)C2=O)ncc1C#N [Example 139, (S)-4-ethoxy-6-(1-(7-(2-(ethyl(methyl)amino)ethyl)-5-(2-methylpyridin-3-yl)-1-oxo-3,4-dihydroisoquinolin-2(1H)-yl)ethyl)nicotinonitrile]	10 to 1000 nM
10 to 1000 nM	10 to 1000 nM	CCOc1cc([C@H](C)N2CCc3c(cc(CCN(C)CC)cc3-c3cc(C)ncc3F)C2=O)ncc1C#N [Example 142, (S)-4-ethoxy-6-(1-(7-(2-(ethyl(methyl)amino)ethyl)-5-(5-fluoro-2-methylpyridin-4-yl)-1-oxo-3,4-dihydroisoquinolin-2(1H)-yl)ethyl)nicotinonitrile]	10 to 1000 nM
10 to 1000 nM	10 to 1000 nM	CCOc1cc(CN2CCc3c(cc(CCN(C)CC)cc3-c3cc(C)cnc3C(F)F)C2=O)ncc1C#N [Example 144, 6-((5-(2-(difluoromethyl)-5-methylpyridin-3-yl)-7-(2-(ethyl(methyl)amino)ethyl)-1-oxo-3,4-dihydroisoquinolin-2(1H)-yl)methyl)-4-ethoxynicotinonitrile]	10 to 1000 nM
10 to 1000 nM	10 to 1000 nM	CCOc1cc([C@H](C)N2CCc3c(cc(CCN(C)CC)cc3-c3cn(C)nc3C)C2=O)ncc1F [Example 145, (S)-5-(1,3-dimethyl-1H-pyrazol-4-yl)-2-(1-(4-ethoxy-5-fluoropyridin-2-yl)ethyl)-7-(2-(ethyl(methyl)amino)ethyl)-3,4-dihydroisoquinolin-1(2H)-one]	10 to 1000 nM
10 to 1000 nM	10 to 1000 nM	CCOc1cc(C(C)N2CCc3c(cc(CCN(C)CC)cc3-c3ccc(Cl)nc3C)C2=O)ncc1C#N (stereo not drawn) [Example 147, 6-(1-(5-(6-chloro-2-methylpyridin-3-yl)-7-(2-(ethyl(methyl)amino)ethyl)-1-oxo-3,4-dihydroisoquinolin-2(1H)-yl)ethyl)-4-ethoxynicotinonitrile]	10 to 1000 nM
10 to 1000 nM	10 to 1000 nM	CCOc1cc(C(C)N2CCc3c(cc(CCN(C)CC)cc3-c3cc(O)cnc3C)C2=O)ncc1C#N (stereo not drawn) [Example 150, 4-ethoxy-6-(1-(7-(2-(ethyl(methyl)amino)ethyl)-5-(5-hydroxy-2-methylpyridin-3-yl)-1-oxo-3,4-dihydroisoquinolin-2(1H)-yl)ethyl)nicotinonitrile]	10 to 1000 nM
